Test results taken from patent US20240024494A1, “SMALL-MOLECULE CONJUGATE AND USE THEREOF” (SHANGHAI MEWSGEN BIOTECHNOLOGY CO., LTD, priority 2020, published 2024).
Where two headings read alike, the source gives them in different places.

How the values were obtained:
[1] = system: MGC803 (human gastric cancer cells); experiment: Tumor cell proliferation inhibition test, CCK-8 method (Example 21); type: cell-based
Description: (§1) A part of the compounds prepared in the examples of the present disclosure were subjected to a tumor cell proliferation inhibition test by using a CCK-8 method. Cell lines HCT116 (human colon cancer cells), MGC803 (human gastric cancer cells), and MIA PACA-2 (human pancreatic cancer cells) were purchased from Shanghai Meixuan Technology Co., Ltd. Samples (a part of the compounds prepared in the examples) were dissolved in DMSO (Merck), prepared into a concentration of 10 mM, and finally triply diluted in DMEM or McCoy's 5A 1640 medium to 8 concentration gradients. A cell culture solution was collected when a cell culture met a test requirement, 10 μL of the cell culture solution was uniformly coated on a cell counting plate, cells were counted for 3 times under a microscope, and a cell density was calculated by taking an average value; and a 96-well plate (Corning, #3599) was taken, 200 μL of the cell culture solution was added into each well for cell inoculation at a cell concentration of 6×10^3 cells per well, and the inoculated 96-well plate was incubated in a cell incubator containing 5% CO2 at 37° C. for 24 h. An old culture medium was removed by suction, 200 μL of the triply diluted sample DMEM or McCoy's 5A 1640 medium at an initial concentration of 10 μmol/L was added to each well, the DMSO content was controlled to be 1%, three duplicate wells were set, PBS was used as a blank control, and the plate was incubated in the incubator for 72 h. The original DMEM or McCoy's 5A 1640 medium in the 96-well plate and a PBS buffer in a final row were sucked out, a prepared CCK-8 solution (90% DMEM or McCoy's 5A 1640 medium+10% CCK-8) was added, the mixture was incubated in an incubator, and an absorbance was read by using a Biotek microplate reader. Cell growth inhibition rate IC %=(blank control well OD value−administration well OD value)/blank control well OD value×100%.

[2] = system: MIA PACA-2 (human pancreatic cancer cells); experiment: as above; type: cell-based
Description: as §1

[3] = system: HCT116 (human colon cancer cells); experiment: as above; type: cell-based
Description: as §1

[4] = system: tumor cell strains (colon cancer, pancreatic cancer, esophageal squamous carcinoma, gastric cancer, glioma); experiment: Summary of in-vitro proliferation inhibition on tumor cell strains (Examples 19-21); type: cell-based, human
Description: as §1, with “A cell line” for “Cell lines”, “carcinoma cells)” for “cancer cells), MGC803 (human gastric cancer cells),”, “SW1990” for “MIA PACA-2”, “carcinoma” for “cancer”
In-vitro activity test: 100 μL of a cell suspension at a concentration of 4-5×10^4/mL was added to each well of a 96-well plate, and placed in a 5% CO2 incubator at 37° C. After 24 h, a sample solution was added at 10 μL/well, double duplicate wells were set, and a reaction was performed at 37° C. with 5% CO2 for 72 h. 20 μL of 5 mg/ml of an MTT solution was added into each well and reacted for 4 h, a dissolving solution was added at 100 μL/well, the mixture was placed in an incubator, and after dissolution, an OD value at 570 nm was measured with a full-wavelength multifunctional microplate reader. An inhibition rate (IR) and a median inhibitory concentration (IC50) were calculated by using an Excel software.
A part of the compounds prepared in the examples of the present disclosure were subjected to a tumor cell proliferation inhibition test by using a CCK-8 method. Cell lines HCT116 (human colon cancer cells), MGC803 (human gastric cancer cells), and MIA PACA-2 (human pancreatic cancer cells) were purchased from Shanghai Meixuan Technology Co., Ltd. Samples (a part of the compounds prepared in the examples) were dissolved in DMSO (Merck), prepared into a concentration of 10 mM, and finally triply diluted in DMEM or McCoy's 5A 1640 medium to 8 concentration gradients. A cell culture solution was collected when a cell culture met a test requirement, 10 μL of the cell culture solution was uniformly coated on a cell counting plate, cells were counted for 3 times under a microscope, and a cell density was calculated by taking an average value; and a 96-well plate (Corning, #3599) was taken, 200 μL of the cell culture solution was added into each well for cell inoculation at a cell concentration of 6×10^3 cells per well, and the inoculated 96-well plate was incubated in a cell incubator containing 5% CO2 at 37° C. for 24 h. […]

[5] = CCK-8, 72 h, Table 3, read-out: IC50 MGC803
[6] = CCK-8, 72 h, Table 3, read-out: IC50 MIA PACA-2
[7] = CCK-8, 72 h, Table 3, read-out: IC50 HCT116

Compound | IC50 [1, 5] | IC50 [2, 6] | IC50 [3, 7] | Proliferation inhibition activities IC50 on most tumor cell strains (in words) [4] | IC50 ([1]; 72 h) | IC50 ([2]; 72 h) | IC50 ([3]; 72 h)
COc1cc(C(=O)NCCOCCOCCOCCC(=O)N[C@H](C(=O)N[C@@H](CCCNC(N)=O)C(=O)Nc2ccc(COC(=O)N3CCN(C(=O)O[C@H]4CC[C@@]5(C)[C@H](CC[C@@H]6[C@@H]5[C@H](O)C(=O)[C@]5(C)C(c7ccc(=O)oc7)CC[C@]65O)C4)CC3)cc2)C(C)C)ccc1NC(=O)[C@@H]1N[C@@H](CC(C)(C)C)[C@](C#N)(c2ccc(Cl)cc2F)[C@H]1c1cccc(Cl)c1F (some centres unmarked) [Compound I-2] | 0.054 µM | 0.212 µM | 0.026 µM | between several to hundreds of nanomoles | – | – | –
COc1cc(C(=O)NCCOCCOCCOCCC(=O)N[C@H](C(=O)N[C@@H](CCCNC(N)=O)C(=O)Nc2ccc(COC(=O)N3CCC(NC(=O)O[C@H]4CC[C@]5(C)C6CC[C@]7(C)[C@@H](c8ccc(=O)oc8)CC[C@]7(O)C6CC[C@@H]5C4)CC3)cc2)C(C)C)ccc1NC(=O)[C@@H]1N[C@@H](CC(C)(C)C)[C@](C#N)(c2ccc(Cl)cc2F)[C@H]1c1cccc(Cl)c1F (some centres unmarked) [Compound I-5] | 0.116 µM | 0.442 µM | 0.236 µM | – | – | – | –
COc1cc(C(=O)NCCOCCOCCOCCOCCOCCOCCC(=O)N[C@@H](C(=O)N[C@@H](CCCNC(N)=O)C(=O)Nc2ccc(COC(=O)N3CCC(NC(=O)O[C@H]4CC[C@]5(C)C6CC[C@]7(C)C(c8ccc(=O)oc8)CC[C@]7(O)C6CC[C@@H]5C4)CC3)cc2)C(C)C)ccc1NC(=O)[C@@H]1N[C@@H](CC(C)(C)C)[C@](C#N)(c2ccc(Cl)cc2F)[C@H]1c1cccc(Cl)c1F (some centres unmarked) [Compound I-7] | 0.292 µM | 3.53 µM | 1.29 µM | – | – | – | –
COc1cc(C(=O)NCCOCCOCCOCCOCCOCCOCCC(=O)N[C@@H](C(=O)N[C@@H](CCCNC(N)=O)C(=O)Nc2ccc(COC(=O)N3CCN(C(=O)O[C@H]4CC[C@@]5(C)[C@H](CC[C@@H]6[C@@H]5[C@H](O)C(=O)[C@]5(C)C(c7ccc(=O)oc7)CC[C@]65O)C4)CC3)cc2)C(C)C)ccc1NC(=O)[C@@H]1N[C@@H](CC(C)(C)C)[C@](C#N)(c2ccc(Cl)cc2F)[C@H]1c1cccc(Cl)c1F (some centres unmarked) [Compound I-8] | 0.012 µM | 0.087 µM | 0.012 µM | between several to hundreds of nanomoles | – | – | –
COc1cc(C(=O)NCCOCCOCCOCCOCCC(=O)N[C@H](C(=O)N[C@@H](C)C(=O)Nc2ccc(COC(=O)N3CCN(C(=O)O[C@H]4CC[C@@]5(C)[C@H](CC[C@@H]6[C@@H]5[C@H](O)C(=O)[C@]5(C)[C@@H](c7ccc(=O)oc7)CC[C@]65O)C4)CC3)cc2)C(C)C)ccc1NC(=O)[C@@H]1N[C@@H](CC(C)(C)C)[C@](C#N)(c2ccc(Cl)cc2F)[C@H]1c1cccc(Cl)c1F [Compound I-10] | 0.307 µM | 0.443 µM | 0.395 µM | – | – | – | –
COc1cc(C(=O)NCCOCCOCCOCCOCCC(=O)N[C@H](C(=O)N[C@@H](C)C(=O)Nc2ccc(COC(=O)N3CCC(NC(=O)O[C@H]4CC[C@]5(C)C6CC[C@]7(C)[C@@H](c8ccc(=O)oc8)CC[C@]7(O)C6CC[C@@H]5C4)CC3)cc2)C(C)C)ccc1NC(=O)[C@@H]1N[C@@H](CC(C)(C)C)[C@](C#N)(c2ccc(Cl)cc2F)[C@H]1c1cccc(Cl)c1F (some centres unmarked) [Compound I-11] | 0.01 µM | 0.068 µM | 0.027 µM | between several to hundreds of nanomoles | – | – | –
COc1cc(C(=O)NCCOCCOCCOCCOCCC(=O)N[C@@H](CCSC)C(=O)N[C@@H](CCCNC(N)=O)C(=O)Nc2ccc(COC(=O)O[C@@H](C(=O)O[C@H]3C[C@@]4(O)[C@@H](OC(=O)c5ccccc5)C5[C@](C)(C(=O)[C@H](OC(C)=O)C(=C3C)C4(C)C)[C@@H](O)C[C@H]3OC[C@@]53OC(C)=O)[C@@H](NC(=O)c3ccccc3)c3ccccc3)cc2)ccc1NC(=O)[C@@H]1N[C@@H](CC(C)(C)C)[C@](C#N)(c2ccc(Cl)cc2F)[C@H]1c1cccc(Cl)c1F (some centres unmarked) [Compound I-12] | – | – | – | – | 0.626 µM | 0.542 µM | 5.26 µM
COc1cc(C(=O)NCCOCCOCCOCCOCCC(=O)N[C@@H](CCSC)C(=O)N[C@@H](CCCNC(N)=O)C(=O)Nc2ccc(COC(=O)N3CCN(C(=O)O[C@H]4CC[C@@]5(C)[C@H](CC[C@@H]6[C@@H]5[C@H](O)C(=O)[C@]5(C)[C@@H](c7ccc(=O)oc7)CC[C@]65O)C4)CC3)cc2)ccc1NC(=O)[C@@H]1N[C@@H](CC(C)(C)C)[C@](C#N)(c2ccc(Cl)cc2F)[C@H]1c1cccc(Cl)c1F [Compound I-13] | 0.014 µM | 0.024 µM | 0.014 µM | between several to hundreds of nanomoles | – | – | –
COc1cc(C(=O)NCCOCCOCCOCCOCCC(=O)N[C@@H](CCSC)C(=O)N[C@@H](CCCNC(N)=O)C(=O)Nc2ccc(COC(=O)N3CCC(NC(=O)O[C@H]4CC[C@]5(C)C6CC[C@]7(C)[C@@H](c8ccc(=O)oc8)CC[C@]7(O)C6CC[C@@H]5C4)CC3)cc2)ccc1NC(=O)[C@@H]1N[C@@H](CC(C)(C)C)[C@](C#N)(c2ccc(Cl)cc2F)[C@H]1c1cccc(Cl)c1F (some centres unmarked) [Compound I-14] | 0.249 µM | 0.67 µM | 0.483 µM | between several to hundreds of nanomoles | – | – | –
